Patent US20250270213A1, “PI3Ka INHIBITORS” (Synnovation Therapeutics, Inc., priority 2022, published 2025)
pIC50: −log10 of the molar value.

system: T47D (PIK3CA H1047R) cells; assay: pS473 AKT assay with 2.5% FBS, T47D cells; format: cell-based; details: Homo sapiens, pSer473 AKT, DMEM with 2.5% FBS, 2 h treatment, read-out: T47D_IC50
In short: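 T47D (PIK3CA H1047R) cells were switched to DMEM with 2.5% FBS and exposed to compounds for 2 h. After paraformaldehyde fixation, pSer473 AKT was detected by in-cell ELISA (rabbit primary, HRP anti-rabbit secondary, chemiluminescence); IC50 values were fitted from the concentration series.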

SMILES	pIC50
CNC(=O)C1CCN(c2nc(Cl)ccc2NC(C)c2cc(C)cc3c(=O)n4c5c(cnn5CCC4)c23)CC1 (centres unmarked) [Compound 292, 1-(6-chloro-3-((1-(8-methyl-6-oxo-4,5-dihydro-3H,6H-2,2a,5a-triazaaceanthrylen-10-yl)ethyl)amino)pyridin-2-yl)-N-methylpiperidine-4-carboxamide]	> 6.00
CC(=O)N1CCN(c2nc(Cl)ccc2NC(C)c2cc(C)cc3c(=O)n4c5c(cnn5CCC4)c23)CC1 (centres unmarked) [Compound 293, 10-(1-((2-(4-acetylpiprerazin-1-yl)-6-chloropyridin-3-yl)amino)ethyl)-8-methyl-4,5-dihydro-3H,6H-2,2a,5a-triazaaceanthrylen-6-one]	> 6.00
Cc1cc(C(C)Nc2ccc(Cl)nc2-c2nnco2)c2c(c1)c(=O)n1c3c2cnn3CCC1 (centres unmarked) [Compound 294, 10-(1-((6-chloro-2-(1,3,4-oxadiazol-2-yl)pyridin-3-yl)amino)ethyl)-8-methyl-4,5-dihydro-3H,6H-2,2a,5a-triazaaceanthrylen-6-one]	> 6.00
Cc1cc(C(C)Nc2ccc(Cl)nc2-c2ncn(C)n2)c2c(c1)c(=O)n1c3c2cnn3CCC1 (centres unmarked) [Compound 296, 10-(1-((6-chloro-2-(1-methyl-1H-1,2,4-triazol-3-yl)pyridin-3-yl)amino)ethyl)-8-methyl-4,5-dihydro-3H,6H-2,2a,5a-triazaaceanthrylen-6-one]	> 6.00
Cc1cc(C(C)Nc2ccc(Cl)nc2-c2ncn(CCO)n2)c2c(c1)c(=O)n1c3c2cnn3CCC1 (centres unmarked) [Compound 297, 10-(1-((6-chloro-2-(1-(2-hydroxyethyl)-1H-1,2,4-triazol-3-yl)pyridin-3-yl)amino)ethyl)-8-methyl-4,5-dihydro-3H,6H-2,2a,5a-triazaaceanthrylen-6-one]	> 6.00
Cc1cc(C(C)Nc2ccc(Cl)nc2-c2nnn(C)n2)c2c(c1)c(=O)n1c3c2cnn3CCC1 (centres unmarked) [Compound 298, 10-(1-((6-chloro-2-(2-methyl-2H-tetrazol-5-yl)pyridin-3-yl)amino)ethyl)-8-methyl-4,5-dihydro-3H,6H-2,2a,5a-triazaaceanthrylen-6-one]	> 6.00
Cc1cc(C(C)Nc2ccc(Cl)nc2-c2cnn(C3CCOCC3)c2)c2c(c1)c(=O)n1c3c2cnn3CCC1 (centres unmarked) [Compound 299, 10-(1-((6-chloro-2-(1-(tetrahydro-2H-pyran-4-yl)-1H-pyrazol-4-yl)pyridin-3-yl)amino)ethyl)-8-methyl-4,5-dihydro-3H,6H-2,2a,5a-triazaaceanthrylen-6-one]	> 6.00
Cc1cc(C(C)Nc2ccc(Cl)nc2-c2cnn(CCO)c2)c2c(c1)c(=O)n1c3c2cnn3CCC1 (centres unmarked) [Compound 300, 10-(1-((6-chloro-2-(1-(2-hydroxyethyl)-1H-pyrazol-4-yl)pyridin-3-yl)amino)ethyl)-8-methyl-4,5-dihydro-3H,6H-2,2a,5a-triazaaceanthrylen-6-one]	> 6.00
Cc1cc(C(C)Nc2ccc(Cl)nc2-c2cnn(C3CCN(C)CC3)c2)c2c(c1)c(=O)n1c3c2cnn3CCC1 (centres unmarked) [Compound 301]	> 6.00
Cc1cc(C(C)Nc2ccc(Cl)nc2-c2cnn(C3CCCN(C)C3)c2)c2c(c1)c(=O)n1c3c2cnn3CCC1 (centres unmarked) [Compound 302]	> 6.00
Cc1cc(C(C)Nc2ccc(Cl)nc2-c2cnn(C3CCN(C)C3)c2)c2c(c1)c(=O)n1c3c2cnn3CCC1 (centres unmarked) [Compound 303, 10-(1-((6-chloro-2-(1-(1-methylpyrrolidin-3-yl)-1H-pyrazol-4-yl)pyridin-3-yl)amino)ethyl)-8-methyl-4,5-dihydro-3H,6H-2,2a,5a-triazaaceanthrylen-6-one]	> 6.00
Cc1cc(C(C)Nc2ccc(Cl)nc2-c2cnn(C3CN(C)C3)c2)c2c(c1)c(=O)n1c3c2cnn3CCC1 (centres unmarked) [Compound 304, 10-(1-((6-chloro-2-(1-(1-methylazetidin-3-yl)-1H-pyrazol-4-yl)pyridin-3-yl)amino)ethyl)-8-methyl-4,5-dihydro-3H,6H-2,2a,5a-triazaaceanthrylen-6-one]	> 6.00
Cc1cc(C(C)Nc2ccc(Cl)nc2-c2cnn(C3CCN(C(=O)N(C)C)CC3)c2)c2c(c1)c(=O)n1c3c2cnn3CCC1 (centres unmarked) [Compound 305, 4-(4-(6-chloro-3-((1-(8-methyl-6-oxo-4,5-dihydro-3H,6H-2,2a,5a-triazaaceanthrylen-10-yl)ethyl)amino)pyridin-2-yl)-1H-pyrazol-1-yl)-N,N-dimethylpiperidine-1-carboxamide]	> 6.00
Cc1cc(C(C)Nc2ccc(Cl)nc2-c2ccnc(C)c2)c2c(c1)c(=O)n1c3c2cnn3CCC1 (centres unmarked) [Compound 306, 10-(1-((6-chloro-2′-methyl-[2,4′-bipyridin]-3-yl)amino)ethyl)-8-methyl-4,5-dihydro-3H,6H-2,2a,5a-triazaaceanthrylen-6-one]	> 6.00
Cc1cc(C(C)Nc2ccc(Cl)nc2-c2cccnc2)c2c(c1)c(=O)n1c3c2cnn3CCC1 (centres unmarked) [Compound 307, 10-(1-((6-chloro-[2,3′-bipyridin]-3-yl)amino)ethyl)-8-methyl-4,5-dihydro-3H,6H-2,2a,5a-triazaaceanthrylen-6-one]	> 6.00
Cc1cc(C(C)Nc2ccc(Cl)nc2-c2ccc(=O)n(C)c2)c2c(c1)c(=O)n1c3c2cnn3CCC1 (centres unmarked) [Compound 308, 10-(1-((6-chloro-1′-methyl-6′-oxo-1′,6′-dihydro-[2,3′-pyridin]-3-yl)amino)ethyl)-8-methyl-4,5-dihydro-3H,6H-2,2a,5a-triazaaceanthrylen-6-one]	> 6.00
CNC(=O)c1ccc(-c2nc(Cl)ccc2NC(C)c2cc(C)cc3c(=O)n4c5c(cnn5CCC4)c23)cc1F (centres unmarked) [Compound 309, 4-(6-chloro-3-((1-(8-methyl-6-oxo-4,5-dihydro-3H,6H-2,2a,5a-triazaaceanthrylen-10-yl)ethyl)amino)pyridin-2-yl)-2-fluoro-N-methylbenzamide]	> 6.00
CNC(=O)c1ccc(-c2nc(Cl)ccc2NC(C)c2cc(C)cc3c(=O)n4c5c(cnn5CCC4)c23)cn1 (centres unmarked) [Compound 310, 6-chloro-N-methyl-3-((1-(8-methyl-6-oxo-4,5-dihydro-3H,6H-2,2a,5a-triazaaceanthrylen-10-yl)ethyl)amino)-[2,3′-bipyridine]-6′-carboxamide]	> 6.00
COc1ccc(-c2nc(Cl)ccc2NC(C)c2cc(C)cc3c(=O)n4c5c(cnn5CCC4)c23)cn1 (centres unmarked) [Compound 311, 10-(1-((6-chloro-6′-methoxy-[2,3′-bipyridin]-3-yl)amino)ethyl)-8-methyl-4,5-dihydro-3H,6H-2,2a,5a-triazaaceanthrylen-6-one]	> 6.00
COc1cc(-c2nc(Cl)ccc2NC(C)c2cc(C)cc3c(=O)n4c5c(cnn5CCC4)c23)ccn1 (centres unmarked) [Compound 312, 10-(1-((6-chloro-2′-methoxy-[2,4′-bipyridin]-3-yl)amino)ethyl)-8-methyl-4,5-dihydro-3H,6H-2,2a,5a-triazaaceanthrylen-6-one]	> 6.00
Cc1cc(C(C)Nc2ccc(Cl)nc2-c2ccnc(N(C)C)c2)c2c(c1)c(=O)n1c3c2cnn3CCC1 (centres unmarked) [Compound 313, 10-(1-((6-chloro-2′-(dimethylamino)-[2,4′-bipyridin]-3-yl)amino)ethyl)-8-methyl-4,5-dihydro-3H,6H-2,2a,5a-triazaaceanthrylen-6-one]	> 6.00
Cc1cc(C(C)Nc2ccc(Cl)nc2-c2ccc3c(c2)CN(C)C3=O)c2c(c1)c(=O)n1c3c2cnn3CCC1 (centres unmarked) [Compound 314, 10-(1-((6-chloro-2-(2-methyl-1-oxoisoindolin-5-yl)pyridin-3-yl)amino)ethyl)-8-methyl-4,5-dihydro-3H,6H-2,2a,5a-triazaaceanthrylen-6-one]	> 6.00
Cc1cc(C(C)Nc2ccc(Cl)nc2-c2ccc3ncccc3c2)c2c(c1)c(=O)n1c3c2cnn3CCC1 (centres unmarked) [Compound 315, 10-(1-((6-chloro-2-(quinolin-6-yl)pyridin-3-yl)amino)ethyl)-8-methyl-4,5-dihydro-3H,6H-2,2a,5a-triazaaceanthrylen-6-one]	> 6.00
Cc1cc(C(C)Nc2ccc(Cl)nc2-c2ccc3c(cnn3C)c2)c2c(c1)c(=O)n1c3c2cnn3CCC1 (centres unmarked) [Compound 316, 10-(1-((6-chloro-2-(1-methyl-1H-indazol-5-yl)pyridin-3-yl)amino)ethyl)-8-methyl-4,5-dihydro-3H,6H-2,2a,5a-triazaaceanthrylen-6-one]	> 6.00
CNC(=O)c1ccc(-c2nc(C)ccc2NC(C)c2cc(C)cc3c(=O)n4c5c(cnn5CCC4)c23)cc1F (centres unmarked) [Compound 317, 2-fluoro-N-methyl-4-(6-methyl-3-((1-(8-methyl-6-oxo-4,5-dihydro-3H,6H-2,2a,5a-triazaaceanthrylen-10-yl)ethyl)amino)pyridin-2-yl)benzamide]	> 6.00
Cc1cc(C(C)Nc2ccc(C)nc2-c2cnn(C3CCOCC3)c2)c2c(c1)c(=O)n1c3c2cnn3CCC1 (centres unmarked) [Compound 318, 8-methyl-10-(1-((6-methyl-2-(1-(tetrahydro-2H-pyran-4-yl)-1H-pyrazol-4-yl)pyridin-3-yl)amino)ethyl)-4,5-dihydro-3H,6H-2,2a,5a-triazaaceanthrylen-6-one]	> 6.00
Cc1cc(C(C)Nc2ccc(C)nc2-c2cnn(CCO)c2)c2c(c1)c(=O)n1c3c2cnn3CCC1 (centres unmarked) [Compound 319, 10-(1-((2-(1-(2-hydroxyethyl)-1H-pyrazol-4-yl)-6-methylpyridin-3-yl)amino)ethyl)-8-methyl-4,5-dihydro-3H,6H-2,2a,5a-triazaaceanthrylen-6-one]	> 6.00
Cc1cc(C(C)Nc2ccc(C)nc2-c2ccnc(C)c2)c2c(c1)c(=O)n1c3c2cnn3CCC1 (centres unmarked) [Compound 320, 10-(1-((2′,6-dimethyl-[2,4′-bipyridin]-3-yl)amino)ethyl)-8-methyl-4,5-dihydro-3H,6H-2,2a,5a-triazaaceanthrylen-6-one]	> 6.00
Cc1cc(C(C)Nc2ccc(C)nc2-c2cnn(C3CC3)c2)c2c(c1)c(=O)n1c3c2cnn3CCC1 (centres unmarked) [Compound 321, 10-(1-((2-(1-cyclopropyl-1H-pyrazol-4-yl)-6-methylpyridin-3-yl)amino)ethyl)-8-methyl-4,5-dihydro-3H,6H-2,2a,5a-triazaaceanthrylen-6-one]	> 6.00
